Series [1] in a line: Phase-solubility of dexmedetomidine in aqueous 2-HP-β-CD solutions (phosphate buffers, 32 °C). The class given is physicochemical. Conditions: for solubility at 240 h: phosphate buffer with 2-hp-β-cd, 32° C., read-out: DEX solubility. The protocol:
The excess amount of the drug was added to pH 6.0, 7.0 and 8.0 phosphate buffers (142 mM) and the pHs of the suspensions were readjusted with 0.2M NaOH. The suspensions were shaken at 32° C. in a water bath for 10 days. After equilibration, the saturated solutions of DEX were filtered, diluted and the concentrations of DEX were analyzed by RP-HPLC at 210 nm.

Series [2] can be described thus: In vitro release of DEX from silicone depot patches in diffusion cells. The class given is physicochemical. Conditions: trisodium phosphate in device core. As to the method: The effect of cyclodextrin on the release rate of DEX was determined using reservoir-type silicone depot patches. Typical composition of the reservoir containing the drug and CD in molar ratio 1:1 was:
______________________________________
DEX HCl 200 μg (170 μg DEX base)
Tris-buffer (TRIS), trisodium phosphate (TP), disodium phosphate (DP), sodium phosphate (MP) or the mixture of disodium and sodium phosphates (50/50) (MP/DP) were used to buffer the devices. 2-HP-β-CD was added to the device in three different ways:
1) without precomplexation with DEX
2) using an inclusion complex of DEX and CD prepared by grinding
3) using an inclusion complex of DEX and CD prepared by spray-drying
In some patches the amount of pH-adjusting agent (DP) was decreased from 1600 μg to 200 μg or 2-HP-γ-CD was used instead of β-derivative.
Silicone membranes for the devices were made of MDX-4-4210 medical grade elastomer (Dow Corning, Midland, […].) by mixing 10% (w/w) MDX-4240 curing agent with the elastomer. […]
In vitro release of DEX from the devices was determined in diffusion cells at 34 ±1° C. […] At predetermined times, samples of 250 μl were withdrawn, replaced by fresh buffer solution, and the concentration of DEX in the samples was analyzed by RP-HPLC. After each release experiment pH in the devices was measured with a microelectrode.

For series [3] the following is noted: as pH is increased; cited from earlier work.

The structures appear in SMILES notation. In brackets after ≈: the same amount, converted by molar mass. Read-outs that look alike come from different tables or passages of the source.

With `Cc1cccc([C@H](C)c2cnc[nH]2)c1C` [DEX, dexmedetomidine], the “influence of 2-HP-β-CD on solubility of DEX (in words)” value in series [1] (pH 6.0, 7.0 and 8.0) is “the greatest as the pH of the solutions was highest”. Moreover, the “improvement of the solubility of DEX by addition of 50% (m/V) 2-HP-β-CD” value in series [1] (pH 6.0, 7.0 and 8.0 buffers) is 19-99 times. The solubility (commonly how much of the substance goes into solution per volume) at 240 h in series [1] (pH 6, pH 6, 2-HP-β-CD 5 % (m/V) (35 mM)) is 7060 µg/mL (≈ 35.3 mM); in series [1] (pH 6, pH 6, 2-HP-β-CD 10 % (m/V) (70 mM)) it was 10000 µg/mL (≈ 50 mM); in series [1] (pH 6, pH 6, 2-HP-β-CD 15 % (m/V) (105 mM)), 12800 µg/mL (≈ 63.9 mM); in series [1] (pH 6, pH 6, 2-HP-β-CD 30 % (m/V) (209 mM)) it was 20900 µg/mL (≈ 105 mM); in series [1] (pH 6, pH 6, 2-HP-β-CD 50 % (m/V) (349 mM)) it was 36800 µg/mL (≈ 184 mM); in series [1] (pH 7, pH 7, 2-HP-β-CD 5 % (m/V) (35 mM)), 1600 µg/mL (≈ 7.99 mM). The solubility at 240 h in series [1] (pH 7, pH 7, 2-HP-β-CD 10 % (m/V) (70 mM)) turned out to be 3040 µg/mL (≈ 15.2 mM); in series [1] (pH 7, pH 7, 2-HP-β-CD 15 % (m/V) (105 mM)), 4910 µg/mL (≈ 24.5 mM); in series [1] (pH 7, pH 7, 2-HP-β-CD 30 % (m/V) (209 mM)) it was 9330 µg/mL (≈ 46.6 mM); in series [1] (pH 7, pH 7, 2-HP-β-CD 50 % (m/V) (349 mM)), 12800 µg/mL (≈ 64.1 mM); in series [1] (pH 8, pH 8, 2-HP-β-CD 5 % (m/V) (35 mM)) it was 1230 µg/mL (≈ 6.15 mM); in series [1] (pH 8, pH 8, 2-HP-β-CD 10 % (m/V) (70 mM)) it was 2260 µg/mL (≈ 11.3 mM). In addition, the solubility at 240 h worked out at 3770 µg/mL (≈ 18.8 mM) in series [1] (pH 8, pH 8, 2-HP-β-CD 15 % (m/V) (105 mM)); 7200 µg/mL (≈ 35.9 mM) in series [1] (pH 8, pH 8, 2-HP-β-CD 30 % (m/V) (209 mM)); 13300 µg/mL (≈ 66.2 mM) in series [1] (pH 8, pH 8, 2-HP-β-CD 50 % (m/V) (349 mM)). For the same compound, in series [2], the “increase of DEX release rate by trisodium phosphate” value is reported as “over 180 times”. The “aqueous solubility (in words)” value in series [3] is “drops dramatically”.

The record behind these values is patent US5817332A, “Transdermal drug delivery system” (priority 1994, dated 1998).
